Converted amounts (≈) assume the structure as drawn.
Tests used:
[1] = tested on: intraocular pressure (IOP); test: Ocular hypotensive effects following topical administration (Table 2); type: in vivo, New Zealand white rabbits; conditions: IOP lowering; for Maximum Topical Effect: one eye, contralateral eye vehicle
Experimental: B.2 Ocular Hypotensive Effects Following Topical Administration
IOP was determined using rabbits familiarized with the Alcon pneumotonometric measurement employed. Drugs were dissolved or suspended in 0.9% saline or a 1% hydroxypropylmethyl-cellulose gel and instilled into one eye. The contralateral eye received the vehicle only, thereby serving as a control. Initial screening was accomplished using measurements every 15-30 minutes for 5-6 hours. Statistical analysis wa then performed using Student's t-test for paired data (two-tailed).

[2] = Corneal permeability rate constant (kin) across freshly excised bovine corneas in vitro; accession rate; type: in vitro ADME; conditions: for kin (corneal permeability rate constant): excised bovine corneas, in vitro
Experimental: (§1) In these examples the general methodology for testing these compounds is as follows. Melting point (M.P.) is assessed using a standard Fisher-Johns apparatus. Quantitative analysis of drug concentrations is carried out using either an enzymatic assay or by high performance liquid chromatography (HPLC). The enzymatic assay is a modification of Maren's micromethod, J. Pharmacol. Exp. Ther., 130:26-29, 1960. Essentially, a reaction volume of 0.8 mL, containing a carbonate/bicarbonate buffer, phenol red, purified carbonic anhydrase, and inhibitor is maintained at 0° degrees and saturation with CO2 by constant bubbling. The time required for acidification to a color change endpoint is monitored as the dependent variable. Carbonic anhydrase inhibitors increase reaction time in proportion to their concentrations over a useful range. The HPLC analysis is performed using reverse phase chromatography (C18) and gradient elution. At a flow rate of 2mL/min, initial mobile phase composition is 95% A, 5% B, where A is 50 mM phosphate buffer, pH=2, and B is CH3 OH. This composition is altered in a linear fashion over 12 minutes to a final composition of 5:95, A:B, v:v. Capacity factor (k') is determined using the relationship k'=([…] -Vo)/Vo where Ve is the elution volume of the analyte of interest and Vo is the void volume of the column. HPLC analysis using photodiode array UV-visible detection (400-200 nm) is also used to assess purity and acquire spectral information.
(§2) Corneal permeability rate constants (kin) are determined in an in vitro system. Freshly excised bovine corneas are placed on 8 mm tissue culture wells (epithelial surface down) filled with tissue culture medium containing test compound. The well formed by the curvature of the cornea is filled with drug-free medium. Samples of medium are taken from the endothelial side for determination of drug concentrations. The rate constant for drug appearance is kin. Enzyme inhibition is assessed by determination of KI versus carbonic anhydrase II using the enzymatic method. Accession rate is the product of kin and maximum buffer solubility. This is a useful estimate of delivery rate of drug to the anterior chamber of the eye following topical administration.

[3] = Solubility in pH=7.4 phosphate buffer (saturated solutions); type: physicochemical; conditions: aqueous buffer
Experimental: as §1
Solubility is determined by preparing saturated solutions of test compounds in pH=7.4 phosphate buffer followed by analysis of the solution for compound concentration.

carbonic anhydrase II = carbonic anhydrase II (Homo sapiens, UniProt P00918); test: Enzyme inhibition, KI versus carbonic anhydrase II (enzymatic micromethod); type: biochemical; conditions: 0°
Experimental: as §1, with “Carbonic anhydrase inhibitors increase reaction time in proportion to their concentrations over a useful range.” left out
as §2, with “solubility.” for “solubility. This is a useful estimate of delivery rate of drug to the anterior chamber of the eye following topical administration.”

[4] = Partition coefficients (PC), organic solvent : pH=7.4 phosphate buffer; type: physicochemical; conditions: for PC (CHCl3 : buffer): chloroform : pH=7.4 phosphate buffer; for PC (ether: buffer): diethyl ether : pH=7.4 phosphate buffer
Experimental: as §1
Partition coefficients (PC) are determined by dissolving test compound in pH=7.4 phosphate buffer (saturated with the appropriate organic solvent) or organic solvent (diethyl ether or chloroform) saturated with buffer. Equal volumes of organic and aqueous solutions are added to test tubes which are then capped and mixed by inversion until equilibrium is achieved. The ratio of drug concentration organic: aqueous is the partition coefficient.

[5] = tested on: intraocular pressure (IOP); test: Ocular hypotensive effects following systemic administration (Table 1); type: in vivo, New Zealand albino rabbits; conditions: subcutaneous, 225 μmol in corn oil, mean (S.D.)
Experimental: B.1 Ocular Hypotensive Effects Following systemic Administration
Compounds are dissolved in corn oil and injected subcutaneously into New Zealand albino rabbits. […] Injection time is defined as t=0. […] Values shown are IOP in mm Hg represented as the mean (S.D.) of n replications. Data are analyzed using Student's t-test for unpaired data. For time points marked with asterisks, p<0.05, which is taken to indicate a difference from vehicle treated controls.

[6] = oral administration; cited from earlier work
[7] = topical CAI, IOP lowering; cited from earlier work

accession rate [2] | kin (corneal permeability rate constant) [2] | solubility [3] | Ki (carbonic anhydrase II) | PC (CHCl3 : buffer) [4] | Compound | Duration [1] | Time to Peak effect [1] | Maximum Topical Effect [1] | other results
21 µM/h | 0.0021 h⁻¹ | 10 mM (≈ 2620 µg/mL) | – | – | NS(=O)(=O)c1nnc(N2C(=O)CCC2=O)s1 [Example 2, Succinylimidazolamide] | 2 h | 30 min | -2.3 ± 1.7 mm Hg | –
10.8 µM/h | 0.0108 h⁻¹ | 1 mM (≈ 260 µg/mL) | 12 nM | – | NS(=O)(=O)c1nnc(N2C(=O)C=CC2=O)s1 [Example 3, Maleimidiazolamide] | 3 h | 60 min | -2.0 ± 0.5 mm Hg | –
≤ 21 µM/h | 3e-05 h⁻¹ | > 700 mM | 8 nM | – | NS(=O)(=O)c1nnc(N2C(=O)C(O)C(O)C2=O)s1 (stereo not drawn) [Example 4, Dihydroxysuccinimidazolamide] | ≥ 6 h | 60 min | -4.0 ± 0.7 mm Hg | –
309 µM/h | – | – | 32 nM | 0.23 | CCOC(=O)C(=O)Nc1nnc(S(N)(=O)=O)s1 [Example 5, Ethyloxaloylazolamide] | ≥ 5 h | 75 min | -3.0 ± 0.7 mm Hg | PC (ether: buffer) [4]: 0.3; solubility ([3]; unit nm [sic]): 91 mM (≈ 25500 µg/mL); IOP ([5]; t=0 min): 18.4(1.9) mm Hg; IOP ([5]; t=20 min): 17.5(2.1) mm Hg; IOP ([5]; t=45 min, * p<0.05 vs vehicle): 15.0(2.6) mm Hg; IOP ([5]; t=60 min, * p<0.05 vs vehicle): 14.5(2.2) mm Hg; IOP ([5]; t=75 min, * p<0.05 vs vehicle): 14.6(5.1) mm Hg; IOP ([5]; t=90 min, * p<0.05 vs vehicle): 17.8(1.7) mm Hg; IOP ([5]; t=110 min, * p<0.05 vs vehicle): 17.3(2.2) mm Hg; IOP ([5]; t=150 min, * p<0.05 vs vehicle): 18.3(1.3) mm Hg
91 µM/h | 0.0155 h⁻¹ | 5.8 mM (≈ 1790 µg/mL) | – | 1.24 | CCOC(=O)CCC(=O)Nc1nnc(S(N)(=O)=O)s1 [Example 6, Ethylsuccinylazolamide] | – | – | – | PC (ether: buffer) [4]: 0.35; IOP ([5]; t=0 min): 18.3(1.0) mm Hg; IOP ([5]; t=20 min): 17.5(2.0) mm Hg; IOP ([5]; t=45 min, * p<0.05 vs vehicle): 15.4(2.1) mm Hg; IOP ([5]; t=60 min, * p<0.05 vs vehicle): 13.7(1.6) mm Hg; IOP ([5]; t=75 min, * p<0.05 vs vehicle): 12.4(1.9) mm Hg; IOP ([5]; t=90 min, * p<0.05 vs vehicle): 15.1(2.0) mm Hg; IOP ([5]; t=110 min, * p<0.05 vs vehicle): 15.0(1.8) mm Hg; IOP ([5]; t=150 min, * p<0.05 vs vehicle): 16.6(1.6) mm Hg
26 µM/h | 0.0512 h⁻¹ | 0.2 mM (≈ 67.3 µg/mL) | – | 3.03 | CCOC(=O)CCCCC(=O)Nc1nnc(S(N)(=O)=O)s1 [Example 7] | – | – | – | Ki (carbonic anhydrase II; unit inferred): 60 nM

Continued, compound first:

Compound | accession rate [2] | kin (corneal permeability rate constant) [2] | solubility [3] | Ki (carbonic anhydrase II) | PC (CHCl3 : buffer) [4] | Duration [1] | Time to Peak effect [1] | Maximum Topical Effect [1] | other results
CCOC(=O)CCCCC(=O)Nc1nnc(S(N)(=O)=O)s1 [Compound 8, ethyladipoylazolamide] | – | – | – | – | – | 2 h | 30 min | approx. -1.0 mm Hg | –
NS(=O)(=O)c1nnc(NC(=O)CCCCC(=O)O)s1 [Example 8] | – | – | 0.5 mM (≈ 154 µg/mL) | – | – | – | – | – | –
CC(=O)Nc1nnc(S(N)(=O)=O)s1 [acetazolamide, 2-acetylamino-1,3,4-thiadiazole-5-sulfonamide] | – | – | – | – | – | – | – | – | decrease of IOP [6]: shown to decrease IOP following oral administration
Nc1ccc2nc(S(N)(=O)=O)sc2c1 [aminozolamide] | – | – | – | – | – | – | – | – | effectiveness in clinical trial [7]: partially effective in clinical trial

From patent publication US5242937A, “Topically active ocular thiadiazole sulfonamide carbonic anhydrase inhibitors” (Research Corporation Technologies, Inc., priority 1990, dated 1993)
